From patent US11780893B2, “Kv1.3 blockers” (Zealand Pharma A/S, priority 2019, dated 2023)
Like-named read-outs stand apart in the source and are kept apart here. Bridge positions count the residues as written; N and C are the ends. Square brackets hold non-standard residues; d marks the D form. Peptide text beside a SMILES is read from it. Nle = CCCC[C@H](N)C(=O)O

Tests used:
[1] = target: T1, human Kv1.3 voltage-gated K+ channel (Homo sapiens, UniProt P22001); assay: cell-based
T1 construct: host or cells: CHO-DUKX

Kv1.1 = target: T2, Kv1.1 (Homo sapiens, UniProt Q09470); assay: cell-based; conditions: for Selectivity Kv1.1/Kv1.3: ratio IC50[Kv1.1]/IC50[Kv1.3]
T2 construct: expressed in transfected cells; host or cells: Chinese Hamster Ovary (CHO)

Kv1.2 = target: T3, Kv1.2 (Homo sapiens, UniProt P16389); assay: cell-based
T3 construct: expressed in transfected cells; host or cells: Chinese Hamster Ovary (CHO)

Kv1.3 = target: T4, Kv1.3 (Homo sapiens, UniProt P22001); assay: cell-based
T4 construct: expressed in transfected cells; host or cells: Chinese Hamster Ovary (CHO)

Kv1.6 = target: T5, Kv1.6 (Homo sapiens, UniProt P17658); assay: cell-based
T5 construct: expressed in transfected cells; host or cells: Chinese Hamster Ovary (CHO)

[2] = test system: Human peripheral blood mononuclear cells (PBMCs); assay: IL-2 release from anti-CD3 stimulated human PBMCs (Example 4a); format: cell-based; conditions: for IC50: geometric mean, at least 4 replicates, read-out: anti-CD3 PBMC/IL-2 IC50
Procedure: Human peripheral blood mononuclear cells (PBMCs) were used to assess the effects of Kv1.3 blockers on T-cell activation as determined by IL-2 (cytokine) release after stimulation with anti-CD3.
Human PBMCs were obtained from Precision for Medicine (Frederick, Md.). Cells from 5 donors were used. Plate-bound anti-CD3 was used to stimulate bulk T cells in the PBMC preparations. Briefly, 96-well plates were coated with anti-CD3 antibody for 2 hrs at 37° C., using 50 μL of a 0.5 μg/mL anti-CD3 solution diluted in 1×PBS. Thereafter the plates were washed twice.
Finally, 1×10^5 PBMCs were added to each well in a volume of 100 μL, giving a final volume of 200 μL per well. The plates were incubated for 20-24 hours in a 37° C./5% CO2 incubator. After centrifugation of the plates, 25 μl supernatant was transferred to IL-2 detection plates (MSD Human IL-2 Tissue Culture Kit, cat #K151AHB-2) and IL-2 was measures as described by the manufacturer (Meso Scale Discovery, Rockville, Md., USA).
Results are shown in Table 4a as geometric mean of IC50 values obtained from anti-CD3 stimulated human PBMC assays. All values derive from at least 4 replicates.

[3] = test system: delayed-type hypersensitivity (DTH) ear swelling response; format: in vivo, rat
Rat whole blood = Rat whole blood (Rattus norvegicus, UniProt P15384)
in vivo = conditions: male, rat, sc, 70 nmol/kg
[4] = inhibition of thallium flux, CHO-DUKX cells with human Kv1.3, read-out: IC50
[5] = CHO cells, whole-cell patch clamp, read-out: Potency IC50 (nM) Kv1.1
[6] = CHO cells, whole-cell patch clamp, read-out: Potency IC50 (nM) Kv1.2
[7] = CHO cells, whole-cell patch clamp, read-out: Potency IC50 (nM) Kv1.3
[8] = CHO cells, whole-cell patch clamp, read-out: Potency IC50 (nM) Kv1.6

T2 sequence (Q09470 whole entry): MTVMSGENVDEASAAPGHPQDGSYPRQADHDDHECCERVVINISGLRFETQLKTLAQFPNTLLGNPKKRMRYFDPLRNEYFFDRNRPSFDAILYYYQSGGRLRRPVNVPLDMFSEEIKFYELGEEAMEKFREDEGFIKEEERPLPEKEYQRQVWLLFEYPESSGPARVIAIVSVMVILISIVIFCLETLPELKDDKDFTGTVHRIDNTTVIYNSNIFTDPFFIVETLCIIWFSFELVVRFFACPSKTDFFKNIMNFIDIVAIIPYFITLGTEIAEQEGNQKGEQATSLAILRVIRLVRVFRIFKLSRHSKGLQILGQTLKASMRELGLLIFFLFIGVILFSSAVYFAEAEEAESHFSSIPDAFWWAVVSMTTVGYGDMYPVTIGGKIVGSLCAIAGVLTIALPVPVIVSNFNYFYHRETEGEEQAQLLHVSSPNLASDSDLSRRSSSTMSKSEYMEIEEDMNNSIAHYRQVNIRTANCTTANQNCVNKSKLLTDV
T3 sequence (P16389 whole entry): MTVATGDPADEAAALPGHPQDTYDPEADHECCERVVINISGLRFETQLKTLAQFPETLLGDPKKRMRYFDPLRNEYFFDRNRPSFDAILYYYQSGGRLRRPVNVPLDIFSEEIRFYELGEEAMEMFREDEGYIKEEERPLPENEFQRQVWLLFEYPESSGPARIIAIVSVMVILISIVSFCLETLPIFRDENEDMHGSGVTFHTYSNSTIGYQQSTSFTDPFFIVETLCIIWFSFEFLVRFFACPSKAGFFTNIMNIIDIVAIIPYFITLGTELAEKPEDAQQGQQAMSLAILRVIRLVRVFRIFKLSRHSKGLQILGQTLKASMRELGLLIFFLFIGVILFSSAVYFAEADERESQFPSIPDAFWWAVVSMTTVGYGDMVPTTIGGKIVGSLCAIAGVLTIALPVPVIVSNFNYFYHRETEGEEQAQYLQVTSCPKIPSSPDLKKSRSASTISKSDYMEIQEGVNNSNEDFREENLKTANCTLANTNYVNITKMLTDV
T5 sequence (P17658 whole entry): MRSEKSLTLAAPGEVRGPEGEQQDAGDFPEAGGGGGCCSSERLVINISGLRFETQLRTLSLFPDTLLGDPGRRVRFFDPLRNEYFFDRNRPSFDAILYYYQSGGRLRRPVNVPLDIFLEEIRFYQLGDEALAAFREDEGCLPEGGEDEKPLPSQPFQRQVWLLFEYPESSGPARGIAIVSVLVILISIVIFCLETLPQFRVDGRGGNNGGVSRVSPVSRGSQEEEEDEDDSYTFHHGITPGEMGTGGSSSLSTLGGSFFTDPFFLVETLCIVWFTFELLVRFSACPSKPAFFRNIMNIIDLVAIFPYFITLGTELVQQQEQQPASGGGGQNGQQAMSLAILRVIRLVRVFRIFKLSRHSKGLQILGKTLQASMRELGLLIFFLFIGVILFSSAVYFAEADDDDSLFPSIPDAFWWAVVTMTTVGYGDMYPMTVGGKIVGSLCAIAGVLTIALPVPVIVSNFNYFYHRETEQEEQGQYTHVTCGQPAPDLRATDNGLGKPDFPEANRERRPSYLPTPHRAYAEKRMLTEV
T4 sequence (P22001 whole entry): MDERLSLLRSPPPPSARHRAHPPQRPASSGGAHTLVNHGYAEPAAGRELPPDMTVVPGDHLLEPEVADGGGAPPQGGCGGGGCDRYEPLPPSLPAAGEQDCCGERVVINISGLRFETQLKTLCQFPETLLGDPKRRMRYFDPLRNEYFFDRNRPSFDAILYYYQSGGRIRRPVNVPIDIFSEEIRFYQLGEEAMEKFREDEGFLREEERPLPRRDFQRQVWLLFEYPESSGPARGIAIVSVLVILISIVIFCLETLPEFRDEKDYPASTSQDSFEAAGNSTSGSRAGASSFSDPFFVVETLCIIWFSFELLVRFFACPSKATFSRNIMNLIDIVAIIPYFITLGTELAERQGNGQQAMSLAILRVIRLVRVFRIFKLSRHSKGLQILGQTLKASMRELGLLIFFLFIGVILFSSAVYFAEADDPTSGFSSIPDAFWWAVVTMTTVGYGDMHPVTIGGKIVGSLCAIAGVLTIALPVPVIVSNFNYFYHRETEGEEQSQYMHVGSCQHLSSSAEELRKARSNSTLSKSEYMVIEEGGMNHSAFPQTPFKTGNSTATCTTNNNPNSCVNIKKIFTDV
T1 sequence (P22001 whole entry): as above
Chain of Rat whole blood (P15384 whole entry): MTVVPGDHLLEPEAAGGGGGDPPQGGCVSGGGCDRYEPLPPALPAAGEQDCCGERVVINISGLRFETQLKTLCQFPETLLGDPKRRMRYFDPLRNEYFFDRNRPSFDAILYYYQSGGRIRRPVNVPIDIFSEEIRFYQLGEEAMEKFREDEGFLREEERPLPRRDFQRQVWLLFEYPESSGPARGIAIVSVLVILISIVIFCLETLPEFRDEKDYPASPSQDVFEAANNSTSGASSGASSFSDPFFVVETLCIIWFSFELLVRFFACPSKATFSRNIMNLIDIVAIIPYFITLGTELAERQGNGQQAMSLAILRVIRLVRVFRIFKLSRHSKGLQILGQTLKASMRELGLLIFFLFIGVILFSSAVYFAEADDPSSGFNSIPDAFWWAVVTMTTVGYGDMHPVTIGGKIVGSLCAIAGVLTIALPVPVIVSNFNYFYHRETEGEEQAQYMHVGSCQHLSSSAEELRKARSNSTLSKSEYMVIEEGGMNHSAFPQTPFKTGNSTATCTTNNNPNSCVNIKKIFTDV

Structure (SMILES)	IC50 [1, 4]	IC50 (Kv1.1; [5])	Selectivity Kv1.1/Kv1.3 (Kv1.1)	IC50 (Kv1.2; [6])	IC50 (Kv1.3; [7])	IC50 (Kv1.6; [8])	IC50 [2]	IC50 of Moka1 relative to IC50 of test compounds and ShK186 (IL-2 secretion) ([2]; test compound IC50 lower than that of Moka1)	IC50 [1]	IC50 (Kv1.1)	IC50 (Kv1.2)	IC50 (Kv1.3)	IC50 (Kv1.6)	% inhibition of ear thickness (AUC of Δ ear thickness 0-48 hours) ([3]; rat, in vivo)	IC50 (Rat whole blood)	AUC(0-inf) (in vivo)	Cmax (in vivo)	half-life (in vivo)	Selectivity Kv1.6/Kv1.3 (Kv1.6; ratio IC50[Kv1.6]/IC50[Kv1.3])	% inhibition of ear thickness (AUC of Δ ear thickness 0-48 hours) ([3]; Exp #4, Kv1.3 blocker 100 nmol/kg SC 24 hrs prior to KLH challenge, CsA 10 mg/kg per os, +/- SD)
CCCC[C@@H]1NC(=O)[C@@H]2CSSC[C@H](NC(=O)[C@H](CCCNC(=N)N)NC(=O)[C@H](CCSC)NC(=O)[C@H](CC(=O)O)NC(=O)[C@H](CCSC)NC(=O)[C@@H](N)CC(N)=O)C(=O)N[C@@H](CO)C(=O)N[C@@H](C)C(=O)N[C@@H](CO)C(=O)N[C@@H](C(C)C)C(=O)N[C@@H](CCC(=O)O)C(=O)N[C@H]3CSSC[C@H](NC(=O)[C@H](CCCCN)NC(=O)[C@H](CCCCN)NC(=O)[C@H](CC(N)=O)NC1=O)C(=O)N[C@@H](CCCCN)C(=O)N[C@H](C(=O)N[C@@H](Cc1ccc(O)cc1)C(=O)N1CCC[C@H]1C(=O)N[C@@H](CCCNC(=N)N)C(N)=O)CSSC[C@H](NC(=O)[C@H](CCCCN)NC(=O)[C@H](CCC(N)=O)NC(=O)[C@H](CCCCN)NC3=O)C(=O)N[C@@H](CC(C)C)C(=O)N[C@@H](CCCCN)C(=O)N[C@@H](C)C(=O)N[C@@H]([C@@H](C)CC)C(=O)NCC(=O)N[C@@H](CO)C(=O)N[C@@H]([C@@H](C)CC)C(=O)N[C@@H](Cc1ccccc1)C(=O)NCC(=O)N[C@@H](CCCCN)C(=O)N2 [Compound 16] (H-NMDMRCSASVECKQKCLKAIGSIFGKC[Nle]NKKCKCYPR-NH2; disulfide 6-27, 12-32, 16-34)	0.14 nM	> 3000 nM	>12600	133 nM	0.24 nM	2460 nM	0.05 nM	–	–	–	–	–	–	–	–	–	–	–	–	–
CC[C@H](C)[C@H](N)C(=O)N[C@@H](CC(N)=O)C(=O)N[C@H](C(=O)N[C@@H](CCCCN)C(=O)N[C@H]1CSSC[C@@H]2NC(=O)[C@H](CCCCN)NC(=O)CNC(=O)[C@H](Cc3ccccc3)NC(=O)[C@H](CCCNC(=N)N)NC(=O)[C@H](CCSC)NC(=O)CNC(=O)[C@H](C)NC(=O)[C@H](CC(=O)O)NC(=O)[C@H](CCCCN)NC(=O)[C@@H]3CSSC[C@@H](C(=O)N[C@@H](Cc4ccc(O)cc4)C(=O)N[C@@H](CO)C(=O)O)NC(=O)[C@H](CCCNC(=N)N)NC(=O)[C@H](CSSC[C@H](NC(=O)[C@H](CCC(N)=O)NC(=O)[C@H](CCC(N)=O)NC(=O)[C@@H]4CCCN4C(=O)[C@H](CC(C)C)NC(=O)[C@H](CO)NC1=O)C(=O)N[C@@H]([C@@H](C)CC)C(=O)N[C@@H](CCCCN)C(=O)N1CCC[C@H]1C(=O)N3)NC(=O)[C@H](CCCCN)NC(=O)[C@H](CCCCN)NC(=O)[C@H](CC(N)=O)NC(=O)[C@H](CCSC)NC2=O)C(C)C [Moka1, reference compound]	–	–	–	–	–	–	–	10-100 fold	–	–	–	–	–	–	–	–	–	–	–	–
CC[C@H](C)[C@@H]1NC(=O)[C@H](C)NC(=O)[C@H](CC(=O)O)NC(=O)[C@H](CC(C)C)NC(=O)[C@@H]2CSSC[C@@H](C(=O)N[C@@H](Cc3ccc(O)cc3)C(=O)N3CCC[C@H]3C(=O)N[C@@H](CCCNC(=N)N)C(N)=O)NC(=O)[C@H](CCCCN)NC(=O)[C@@H]3CSSC[C@H](NC(=O)[C@H](CCC(=O)O)NC(=O)[C@H](C(C)C)NC(=O)[C@H](CO)NC(=O)[C@H](C)NC(=O)[C@H](CO)NC(=O)[C@@H](NC(=O)[C@H](CCCNC(=N)N)NC(=O)[C@H](CCSC)NC(=O)[C@H](CC(=O)O)NC(=O)[C@H](CCSC)NC(=O)[C@@H](N)CC(N)=O)CSSC[C@H](NC(=O)[C@H](CCCCN)NC(=O)CNC(=O)[C@H](Cc4ccccc4)NC(=O)[C@H]([C@@H](C)CC)NC(=O)[C@H](CO)NC(=O)CNC1=O)C(=O)N[C@@H](CCSC)C(=O)N[C@@H](CC(N)=O)C(=O)N[C@@H](CCCCN)C(=O)N[C@@H](CCCCN)C(=O)N3)C(=O)N[C@@H](CCCCN)C(=O)N[C@@H](CCC(N)=O)C(=O)N[C@@H](CCCCN)C(=O)N2 [Compound 20] (H-NMDMRCSASVECKQKCLDAIGSIFGKCMNKKCKCYPR-NH2; disulfide 6-27, 12-32, 16-34)	0.13 nM	> 3000 nM	>14300	99 nM	0.21 nM	2530 nM	0.1 nM	–	–	–	–	–	–	–	–	–	–	–	–	–
CCCC[C@@H]1NC(=O)[C@@H]2CSSC[C@H](NC(=O)[C@H](CCCNC(=N)N)NC(=O)[C@H](CCCC)NC(=O)[C@H](CCC(=O)O)NC(=O)[C@@H](NC(=O)[C@@H]3CCCN3)[C@@H](C)CC)C(=O)N[C@@H](CO)C(=O)N[C@@H](C)C(=O)N[C@@H](CO)C(=O)N[C@@H](C(C)C)C(=O)N[C@@H](CCC(=O)O)C(=O)N[C@H]3CSSC[C@H](NC(=O)[C@H](CCCCN)NC(=O)[C@H](CCCCN)NC(=O)[C@H](CC(N)=O)NC1=O)C(=O)N[C@@H](CCCCN)C(=O)N[C@H](C(=O)N[C@@H](Cc1ccc(O)cc1)C(=O)N1CCC[C@H]1C(=O)N[C@@H](CCCNC(=N)N)C(=O)O)CSSC[C@H](NC(=O)[C@H](CCCCN)NC(=O)[C@H](CCC(N)=O)NC(=O)[C@H](CCCCN)NC3=O)C(=O)N[C@@H](CC(C)C)C(=O)N[C@@H](C)C(=O)N[C@@H](C)C(=O)N[C@@H]([C@@H](C)CC)C(=O)NCC(=O)N[C@@H](CO)C(=O)N[C@@H]([C@@H](C)CC)C(=O)N[C@@H](Cc1ccccc1)C(=O)NCC(=O)N[C@@H](CCCCN)C(=O)N2 [Compound 101] (H-PIE[Nle]RCSASVECKQKCLAAIGSIFGKC[Nle]NKKCKCYPR-OH; disulfide 6-27, 12-32, 16-34)	–	–	–	–	–	–	–	–	0.18 nM	> 3000 nM	1970 nM	0.35 nM	> 3000 nM	44.5%	≤ 1 nM	0.132 µM·h	58.6 nM	54.6 min	–	–
CC[C@H](C)[C@@H]1NC(=O)[C@H](C)NC(=O)[C@H](C)NC(=O)[C@H](CC(C)C)NC(=O)[C@@H]2CSSC[C@@H](C(=O)N[C@@H](Cc3ccc(O)cc3)C(=O)N3CCC[C@H]3C(=O)N[C@@H](CCCNC(=N)N)C(N)=O)NC(=O)[C@H](CCCCN)NC(=O)[C@@H]3CSSC[C@H](NC(=O)[C@H](CCC(=O)O)NC(=O)[C@H](C(C)C)NC(=O)[C@H](CO)NC(=O)[C@H](C)NC(=O)[C@H](CO)NC(=O)[C@@H](NC(=O)[C@H](CCCNC(=N)N)NC(=O)[C@H](CCSC)NC(=O)[C@H](CC(=O)O)NC(=O)[C@H](CCSC)NC(=O)[C@@H](N)CC(N)=O)CSSC[C@H](NC(=O)[C@H](CCCCN)NC(=O)CNC(=O)[C@H](Cc4ccccc4)NC(=O)[C@H]([C@@H](C)CC)NC(=O)[C@H](CO)NC(=O)CNC1=O)C(=O)N[C@@H](CCSC)C(=O)N[C@@H](CC(N)=O)C(=O)N[C@@H](CCCCN)C(=O)N[C@@H](CCCCN)C(=O)N3)C(=O)N[C@@H](CCCCN)C(=O)N[C@@H](CCC(N)=O)C(=O)N[C@@H](CCCCN)C(=O)N2 [Compound 52] (H-NMDMRCSASVECKQKCLAAIGSIFGKCMNKKCKCYPR-NH2; disulfide 6-27, 12-32, 16-34)	0.11 nM	> 3000 nM	>27500	88 nM	0.11 nM	> 3000 nM	–	–	–	–	–	–	–	–	≤ 1 nM	0.0485 µM·h	31.2 nM	53.4 min	>27500	25.1%
